Reference: ChEMBL document CHEMBL1131852, “Synthesis and antitumor activity of water-soluble duocarmycin B1 prodrugs” (Bioorg Med Chem Lett, 1999)
pIC50: −log10 of the molar value.

Legend:
HeLa [1] = test: In vitro anticellular activity against HeLa S3 cells 1 hr after administration of the compound; format: functional, cell-based; conditions: Homo sapiens
[2] = In vivo antitumor activity against Sarcoma 180 at dose 8.0 mg/kg; format: functional, Mus musculus
[3] = In vivo antitumor activity against Sarcoma 180 at dose 16.0 mg/kg; format: functional, Mus musculus
HeLa [4] = test: In vitro anticellular activity against HeLa S3 cells 72 hr after administration of the compound; format: functional, cell-based; conditions: Homo sapiens
[5] = In vivo antitumor activity against Sarcoma 180 at dose 0.5 mg/kg; format: functional, Mus musculus
[6] = In vivo antitumor activity against Sarcoma 180 at dose 1.0 mg/kg; format: functional, Mus musculus
[7] = In vivo antitumor activity against Sarcoma 180 at dose 2.0 mg/kg; format: functional, Mus musculus
Colon 26 [8] = test: In vivo antitumor activity against Colon 26 […] at dose 2.0 mg/kg; format: functional
Colon 26 [9] = test: In vivo antitumor activity against Colon 26 […] at dose 1.0 mg/kg; format: functional
Colon 26 [10] = test: In vivo antitumor activity against Colon 26 […] at dose 0.25 mg/kg; format: functional
Colon 26 [11] = test: In vivo antitumor activity against Colon 26 […] at dose 0.5 mg/kg; format: functional

Structure (SMILES)	pIC50 (HeLa [1])	T/C [2]	T/C [3]	pIC50 (HeLa [4])	T/C [5]	T/C [6]	T/C [7]	T/C (Colon 26 [8])	T/C (Colon 26 [9])	T/C (Colon 26 [10])	T/C (Colon 26 [11])
COC(=O)[C@]1(C)Nc2c(O[C@@H]3OC(CO)[C@@H](O)C(O)[C@@H]3O)cc3c(c2C1=O)C[C@H](Br)CN3C(=O)c1cc2cc(OC)c(OC)c(OC)c2[nH]1 (stereo partly drawn)	5.70	0.55	0.38	6.08	–	–	–	–	–	–	–
COC(=O)[C@]1(C)Nc2c(O)cc3c(c2C1=O)C[C@H](Br)CN3C(=O)c1cc2cc(OC)c(OC)c(OC)c2[nH]1	9.89	–	–	10.42	0.22	–	–	–	–	–	–
COC(=O)[C@]1(C)Nc2c(OP(=O)(O)O)cc3c(c2C1=O)C[C@H](Br)CN3C(=O)c1cc2cc(OC)c(OC)c(OC)c2[nH]1	7.40	–	–	8.49	0.57	0.29	–	–	–	–	–
COC(=O)[C@]1(C)Nc2c(OC(=O)N3CCN(C)CC3)cc3c(c2C1=O)C[C@H](Br)CN3C(=O)c1cc2cc(OC)c(OC)c(OC)c2[nH]1.Cl	5.70	–	–	7.15	–	0.19	0.083	0.045	0.23	–	–
COC(=O)[C@]1(C)Nc2c(OC(=O)N3CCN(C)CC3)cc3c(c2C1=O)[C@H](CBr)CN3C(=O)c1cc2cc(OC)c(OC)c(OC)c2[nH]1.Cl	6.77	–	–	7.82	0.26	0.13	–	–	–	0.37	0.13
